Test system: HCV replicon
Experiment: HCV replicon replication assay (NPT ELISA)
Type: cell-based
Conditions: Hepatitis C virus, 72 h; Huh-7 HCV replicon-containing cells, three days; class symbols; read-out: EC50
Method: Compounds claimed herein are tested for the ability to inhibit viral replication of the Hepatitis C replicon in cultured cells in which the HCV replicon construct has been incorporated. The HCV replicon system was described by Bartenschlager, et. al (Science, 285, pp. 110-113 (1999)). The replicon system is predictive of in vivo anti-HCV activity; compounds that are active in humans uniformly evidence activity in the replicon assay.
In this assay HCV replicon containing cells are treated with different concentrations of the test compound to ascertain the ability of the test compound to suppress replication of the HCV replicon. As a positive control, HCV replicon-containing cells are treated with different concentrations of interferon alpha, a known inhibitor of HCV replication. The replicon assay system includes Neomycin Phosphotransferase (NPT) as a component of the replicon itself in order to detect the transcription of replicon gene products in the host cell. Cells in which the HCV replicon is actively replicating have high levels of NPT; the level of NPT is proportional to HCV replication. […] The NPT level of each sample is measured using a captured ELISA.
A protocol for testing compounds for the ability to inhibit viral replication of the Hepatitis C replicon cultured cells in which the replicon construct has been incorporated, follows.
The HCV replicon contains, 5′-3′, the HCV-IRES, the neomycin phosphotransferase (neo) gene, the IRES of encephalomyocarditis virus, which directs translation of HCV sequences NS3 to NS5B, and the 3′-NTR. The sequence of the HCV replicon has been deposited in GenBank (Accession no. AJ242652).
The replicon is transfected into Huh-7 cells using standard methods such as electroporation.
The equipment and materials include, but are not limited to, Huh-7 HCV replicon-containing cells, maintenance media (DMEM (Dulbecco's modified Eagle media) supplemented with 10% FBS, L-glutamine, non-essential amino acids, penicillin (100 units/ml), streptomycin (100 micrograms/ml), and 500 micrograms/ml of Geneticin (G418), screening media (DMEM supplemented with 10% FBS, L-glutamine, non-essential amino acids, penicillin (100 units/ml) and streptomycin (100 micrograms/ml)), 96 well tissue culture plates (flat bottom), 96 well plates (U bottom for drug dilution), Interferon alpha for positive control, fixation reagent (such as methanol: acetone), primary antibody (rabbit anti-NPTII), secondary antibody: Eu-N1 1, and enhancement solution.
HCV replicon-containing cells support high levels of viral RNA replicon replication when their density is suitable. Over-confluency causes decreased viral RNA replication. Therefore, cells must be kept growing in log phase in the presence of 500 micrograms/ml of G418. Generally, cells should be passed twice a week at 1: 4-6 dilution. Cell maintenance is conducted as follows:
HCV replicon-containing cells are examined under a microscope to ensure that cells growing well. Cells are rinsed once with PBS and 2 ml trypsin is added. The cell/trypsin mixture is incubated at 37° C. in a CO2 incubator for 3-5 minutes. After incubation 10 ml of complete media is added to stop the trypsinization reaction. Cells are blown gently, put into a 15 ml tube, and spun at 1200 rpm for 4 minutes. The trypsin/medium solution is removed. Medium (5 ml) is added and the cells are mixed carefully. The cells are counted.
The cells are then seeded onto 96-well plates at a density of 6000-7500 cells/100 microliters/well (6−7.5×10^5 cells/10 ml/plate). The plates are then incubated at 37° C. in a 5% CO2 incubator.
Cells are examined under a microscope approximated 24 hours after seeding and prior to adding drugs. If counting and dilution were performed correctly, cells are 60-70% confluent and nearly all cells should attach and spread evenly in the well.
HCV replicon-containing cells are rinsed with once PBS once; 2 mls of trypsin are then added. Cells are incubated at 37° C. in a 5% CO2 incubator for 3-5 minutes. […]

| SMILES | EC50 |
| --- | --- |
| CC(C)(C)OC(=O)N1c2ccccc2C[C@H]1c1nc(-c2ccc(-c3ccc(-c4cnc([C@@H]5Cc6ccccc6N5C(=O)OC(C)(C)C)[nH]4)cc3)cc2)c[nH]1 [Compound 27, (2S,2′S)-tert-butyl 2,2′-(5,5′-(biphenyl-4,4′-diyl)bis(1H-imidazole-5,2-diyl))diindoline-1-carboxylate] | < 50 nM |
| COC(=O)N[C@H](C(=O)N1CCCCC1c1nc(-c2ccc(-c3ccc(-c4c[nH]c(C5C6CCC(C6)N5C(=O)[C@@H](NC(=O)OC)C(C)C)n4)cc3)cc2)c[nH]1)C(C)C (some centres unmarked) [Compound 49] | < 5 nM |
| CCS(=O)(=O)N[C@H](C(=O)N1C2CCC(C2)[C@H]1c1nc(-c2ccc(-c3ccc(-c4c[nH]c([C@@H]5C6CCC(C6)N5C(=O)[C@@H](NS(=O)(=O)CC)C(C)C)n4)cc3)cc2)c[nH]1)C(C)C [Compound 33, N,N′-(2S,2′S)-1,1′-((3S,3′S)-3,3′-(4,4′-(biphenyl-4,4′-diyl)bis(1H-imidazole-4,2-diyl))bis(2-azabicyclo[2.2.1]heptane-3,2-diyl))bis(3-methyl-1-oxobutane-2,1-diyl)diethanesulfonamide] | < 5 nM |
| COC(=O)N[C@H](C(=O)N1CCC[C@H]1c1ncc(-c2ccc(-c3ccc4oc(-c5cnc([C@@H]6C7CCC(C7)N6C(=O)[C@@H](NC(=O)OC)C(C)C)[nH]5)cc4c3)cc2)[nH]1)C(C)C (some centres unmarked) [Compound 70] | < 5 nM |
| COC(=O)N[C@H](C(=O)N1CCC[C@H]1c1ncc(-c2ccc(-c3ccc(-c4c[nH]c([C@@H]5C6CC([C@@H](O)[C@H]6O)N5C(=O)[C@@H](NC(=O)OC)C(C)C)n4)cc3)cc2)[nH]1)C(C)C (some centres unmarked) [Compound 46] | < 50 nM |
| COC(=O)N[C@H](C(=O)N1C2CCC(C2)[C@H]1c1nc(-c2ccc(/C=C/c3ccc(-c4cnc([C@@H]5C6CCC(C6)N5C(=O)[C@@H](NC(=O)OC)C(C)C)[nH]4)cc3)cc2)c[nH]1)C(C)C (some centres unmarked) [Compound 72] | < 5 nM |
| COC(=O)N[C@H](C(=O)N1C2CCC(C2)C1c1ncc(-c2ccc(-c3ccc(-c4cnc(C5C6CCC(C6)N5C(=O)[C@@H](NC(=O)OC)C(C)C)[nH]4)cc3)cc2)[nH]1)C(C)C (stereo partly drawn) [Compound 56, dimethyl (2S,2′S)-1,1′-(3,3′-(5,5′-(biphenyl-4,4′-diyl)bis(1H-imidazole-5,2-diyl))bis(2-azabicyclo[2.2.1]heptane-3,2-diyl))bis(3-methyl-1-oxobutane-2,1-diyl)dicarbamate] | < 5 nM |
| COC(=O)N[C@H](C(=O)N1CCc2ccc(NC(=O)c3ccc(-c4ccc(-c5cnc([C@@H]6CCCN6C(=O)[C@@H](NC(=O)OC)C(C)C)[nH]5)cc4)cc3)cc21)C(C)C [Compound 41] | < 5 nM |
| COC(=O)NC(C(=O)N1CCC[C@H]1Cc1nc(-c2ccc(-c3ccc(-c4cnc([C@@H]5CCCN5C(=O)[C@@H](NC(=O)OC)C(C)C)[nH]4)cc3)cc2)c[nH]1)C(C)C (some centres unmarked) [Compound 42] | < 5 nM |
| CCCS(=O)(=O)N1CCN(Cc2ccc(NC(=O)c3ccc(-c4ccc(C(=O)Nc5ccc(CN6CCN(S(=O)(=O)CCC)CC6)cc5)cc4)cc3)cc2)CC1 [Compound 17, N4,N4′-bis(4-((4-(propylsulfonyl)piperazin-1-yl)methyl)phenyl)biphenyl-4,4′-dicarboxamide] | < 50 nM |
| COC(=O)N[C@H]1CC[C@H]2CC[C@@H](c3ncc(-c4ccc(-c5ccc(-c6cnc([C@@H]7CCCN7C(=O)[C@@H](NC(=O)OC)C(C)C)[nH]6)cc5)cc4)[nH]3)N2C1=O [Compound 55] | < 50 nM |
| CNC(=O)C[C@H](C(=O)N1CCC[C@H]1c1ncc(-c2ccc(-c3cnc([C@@H]4CCCN4C(=O)[C@@H](CC(=O)NC)C(C)(C)C)[nH]3)cc2)[nH]1)C(C)(C)C [Compound 23, (3S,3′S)-3,3′-(2S,2′S)-2,2′-(5,5′-(1,4-phenylene)bis(1H-imidazole-5,2-diyl))bis(pyrrolidine-2,1-diyl)bis(oxomethylene)bis(N,4,4-trimethylpentanamide)] | < 50 nM |
| COC(=O)NC(C(=O)N1CCC[C@H]1c1ncc(-c2ccc(-c3ccc(-c4c[nH]c([C@@H]5Cc6ccccc6N5C(=O)C(NC(=O)OC)C(C)C)n4)cc3)cc2)[nH]1)C(C)C (some centres unmarked) [Compound 35] | < 5 nM |
| COC(=O)N[C@H](C(=O)N1C2CC(F)C(C2)C1c1ncc(-c2ccc(-c3ccc(-c4cnc([C@@H]5CCCN5C(=O)[C@@H](NC(=O)OC)C(C)C)[nH]4)cc3)cc2)[nH]1)C(C)C (some centres unmarked) [Compound 73] | < 5 nM |
| COC(=O)N[C@H](C(=O)N1CCC[C@H]1c1nc(-c2ccc(-c3ccc(-c4c[nH]c([C@@H]5C6CCC(CC6)N5C(=O)[C@@H](NC(=O)OC)C(C)C)n4)cc3)cc2)c[nH]1)C(C)C [Compound 47] | < 5 nM |
| CCCS(=O)(=O)N1CCN(Cc2ccc(NC(=O)c3ccc(-c4ccc(-c5c[nH]c([C@@H]6CCCN6C(=O)[C@@H](NC(=O)OC)C(C)C)n5)cc4)cc3)cc2)CC1 [Compound 19, methyl (S)-3-methyl-1-oxo-1-((S)-2-(4-(4′-(4-((4-(propylsulfonyl)piperazin-1-yl)methyl)phenylcarbamoyl)biphenyl-4-yl)-1H-imidazol-2-yl)pyrrolidin-1-yl)butan-2-ylcarbamate] | < 50 nM |
| COC(=O)N[C@H](C(=O)N1C2CCC(C2)[C@H]1c1nc(-c2ccc(-c3ccc(-c4c[nH]c([C@@H]5C6CCC(C6)N5C(=O)[C@@H](NC(=O)OC)C(C)C)n4)cc3)cc2)c[nH]1)C(C)C [Compound 24, dimethyl (2S,2′S)-1,1′-((3S,3′S)-3,3′-(4,4′-(biphenyl-4,4'-diyl)bis(1H-imidazole-4,2-diyl))bis(2-azabicyclo[2.2.1]heptane-3,2-diyl))bis(3-methyl-1-oxobutane-2,1-diyl)dicarbamate] | < 5 nM |
| COC(=O)N[C@H](C(=O)N1CCC[C@H]1c1ncc(-c2cc3cc(-c4ccc(-c5cnc([C@@H]6C7CCC(C7)N6C(=O)[C@@H](NC(=O)OC)C(C)C)[nH]5)cc4)ccc3o2)[nH]1)C(C)C (some centres unmarked) [Compound 71] | < 5 nM |

Same assay, conditions: Hepatitis C virus, 72 h; Huh-7 HCV replicon-containing cells, three days; numeric cells; read-out: EC50

| SMILES | EC50 |
| --- | --- |
| COC(=O)NC(C(=O)N1C2CCC(C2)C1c1nc2ccc(-c3ccc4[nH]c(C5C6CCC(C6)N5C(=O)[C@@H](NC(=O)OC)C(C)C)nc4c3)cc2[nH]1)C(C)C (some centres unmarked) [Compound 64] | 619 nM |
| COC(=O)N[C@H](C(=O)N1C2CCC(C2)[C@H]1c1ncc(-c2ccc(Br)cc2)[nH]1)C(C)C (stereo partly drawn) [Compound 54, methyl (2S)-1-((3S)-3-(5-(4-bromophenyl)-1H-imidazol-2-yl)-2-azabicyclo[2.2.1]heptan-2-yl)-3-methyl-1-oxobutan-2-ylcarbamate] | < 100 nM |
| COC(=O)N[C@H](C(=O)N1CCC[C@H]1c1cnc(-c2ccc(-c3ccc(NC(=O)[C@H]4CCCCN4C(=O)[C@H](NC(=O)OC(C)(C)C)c4ccccc4)cc3)cc2)[nH]1)C(C)C [Compound 39] | > 1 nM |
| CNC(=O)C[C@H](C(=O)N1C2CCC(C2)[C@H]1c1nc(-c2ccc(-c3ccc(-c4cnc([C@@H]5C6CCC(C6)N5C(=O)[C@@H](CC(=O)NC)C(C)C)[nH]4)cc3)cc2)c[nH]1)C(C)C (stereo partly drawn) [Compound 38, (3S,3′S)-3,3′-(3S,3′S)-3,3′-(4,4′-(biphenyl-4,4′-diyl)bis(1H-imidazole-4,2-diyl))bis(2-azabicyclo[2.2.1]heptane-3,2-diyl)bis(oxomethylene)bis(N,4-dimethylpentanamide)] | > 1 nM |

Same assay, conditions: Hepatitis C virus, Huh-7

| SMILES | EC50 |
| --- | --- |
| CCS(=O)(=O)N[C@H](C(=O)N1C2CCC(C2)[C@H]1c1nc(-c2ccc(-c3ccc(-c4c[nH]c([C@@H]5C6CCC(C6)N5C(=O)[C@@H](NS(=O)(=O)CC)C(C)C)n4)cc3)cc2)c[nH]1)C(C)C [Compound 33, N,N′-(2S,2′S)-1,1′-((3S,3′S)-3,3′-(4,4′-(biphenyl-4,4′-diyl)bis(1H-imidazole-4,2-diyl))bis(2-azabicyclo[2.2.1]heptane-3,2-diyl))bis(3-methyl-1-oxobutane-2,1-diyl)diethanesulfonamide] | ≤ 10000 nM |
| COC(=O)N[C@H](C(=O)N1CCC[C@H]1c1cnc(-c2ccc(-c3ccc(NC(=O)[C@H]4CCCCN4C(=O)[C@H](NC(=O)OC(C)(C)C)c4ccccc4)cc3)cc2)[nH]1)C(C)C [Compound 39] | ≤ 10000 nM |
| CNC(=O)C[C@H](C(=O)N1C2CCC(C2)[C@H]1c1nc(-c2ccc(-c3ccc(-c4cnc([C@@H]5C6CCC(C6)N5C(=O)[C@@H](CC(=O)NC)C(C)C)[nH]4)cc3)cc2)c[nH]1)C(C)C (stereo partly drawn) [Compound 38, (3S,3′S)-3,3′-(3S,3′S)-3,3′-(4,4′-(biphenyl-4,4′-diyl)bis(1H-imidazole-4,2-diyl))bis(2-azabicyclo[2.2.1]heptane-3,2-diyl)bis(oxomethylene)bis(N,4-dimethylpentanamide)] | ≤ 10000 nM |

Same assay, conditions: Hepatitis C virus, Huh-7, 72 h

| SMILES | EC50 |
| --- | --- |
| CNC(=O)C[C@H](C(=O)N1CCC[C@H]1c1ncc(-c2ccc3c(c2)Cc2cc(-c4cnc([C@@H]5CCCN5C(=O)[C@@H](CC(=O)NC)C(C)(C)C)[nH]4)ccc2-3)[nH]1)C(C)(C)C [Compound 37, (3S,3′S)-3,3′-(2S,2′S)-2,2′-(5,5′-(9H-fluorene-2,7-diyl)bis(1H-imidazole-5,2-diyl))bis(pyrrolidine-2,1-diyl)bis(oxomethylene)bis(N,4,4-trimethylpentanamide)] | > 1 nM |

Source: US9125904B1, “Biphenyl imidazoles and related compounds useful for treating HCV infections” (ACHILLION PHARMACEUTICALS, INC., priority 2010, dated 2015)
